# In ChEMBL document CHEMBL1153236, “Non-aromatic A-ring replacement in the triaryl bis-sulfone CB2 receptor inhibitors” (Bioorg Med Chem Lett, 2010):
# Species: Rattus norvegicus
# Conditions: in vivo, 6 h
row,SMILES,AUC
1,O=S(=O)(c1ccccn1)c1ccc(Cl)cc1S(=O)(=O)N1CCC2(CC1)CC2NS(=O)(=O)C(F)(F)F (stereo not drawn),6.1 µM
2,O=S(=O)(c1ccccc1F)c1cc(Cl)ccc1S(=O)(=O)N1CCC(CNS(=O)(=O)C(F)(F)F)CC1,1.9 µM
3,O=S(=O)(c1ccccn1)c1ccc(OC(F)(F)F)cc1S(=O)(=O)N1CCC2(CC1)CC2NS(=O)(=O)C(F)(F)F (stereo not drawn),7.3 µM
